Each block holds one compound with its values, some of them ahead of it.
Assays:
[1] = target: T1, MasL ([Empedobacter] haloabium, UniProt A0A915Q9D3); assay: CoA release, fluorescent probe; progress curves, covalent inhibitor model; format: biochemical
T1 construct: gene E7V67_18950; recombinant, purified from E. coli; residues 1-394 described; tetramer in solution; reactive Cys90, His350, Cys380; tag details in supplement
Excerpt: CoA release, fluorescent probe; progress curves, covalent inhibitor model on MasL

[2] = target: MasL (acetyl-CoA acetyltransferase of Massilia sp. YMA4), apo form (Massilia sp. YMA4); assay: not stated; oligomeric state of MasL in solution; method not given
[3] = target: MasL (acetyl-CoA acetyltransferase of Massilia sp. YMA4), apo form (Massilia sp. YMA4); assay: crystal structure; X-ray crystal structures of MasL, apo and after incubation with collimonin C or D; a tetramer in the asymmetric unit (space groups P1, P2_(1), P1)
[4] = target: MasL-collimonin C complex (MasL covalently modified by collimonin C at Cys90) (Massilia sp. YMA4); assay: as above
[5] = target: MasL-collimonin D complex (MasL modified by collimonin D) (Massilia sp. YMA4); assay: as above

T1 sequence (A0A915Q9D3 entry or part of it): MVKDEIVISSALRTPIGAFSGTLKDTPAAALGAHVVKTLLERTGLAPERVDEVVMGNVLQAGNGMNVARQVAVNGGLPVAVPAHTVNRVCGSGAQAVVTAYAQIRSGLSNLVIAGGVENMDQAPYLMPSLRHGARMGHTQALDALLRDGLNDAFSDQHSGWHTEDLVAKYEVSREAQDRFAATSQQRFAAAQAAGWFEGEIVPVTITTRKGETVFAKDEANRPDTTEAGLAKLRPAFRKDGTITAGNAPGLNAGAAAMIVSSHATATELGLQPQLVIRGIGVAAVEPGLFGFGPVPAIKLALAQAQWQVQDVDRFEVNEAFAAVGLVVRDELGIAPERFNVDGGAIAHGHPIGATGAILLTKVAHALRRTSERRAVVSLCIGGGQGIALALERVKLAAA

Compound: C#CC#CC#C/C=C/C[C@@H](O)[C@@H](O)CCCCC(=O)O [compound 1, collimonin C]
KI (inactivation) ([1]; covalent, irreversible S-alkylation of Cys90, competitive against acetyl-CoA, complex structure 1.66 Å): 297 µM

Compound: C#CC#CC#C/C=C/C[C@@H](O)[C@H](O)CCCCC(=O)O [compound 2, collimonin D]
KI (inactivation) ([1]; covalent, irreversible S-alkylation of Cys90 (by MS), competitive against acetyl-CoA, complex structure 1.40 Å): 42.8 µM

Compound: C#CC#CC#C/C=C/CCC(O)CCCCC(=O)O (centres unmarked) [compound 3, massilin A]
KI (inactivation) ([1]; covalent, adduct by mass spectrometry): 132 µM

Compound: C#CC#CC#C/C=C/CCCCCCCC(=O)O [compound 5, massilin C]
KI (inactivation) ([1]; covalent inhibitor model): 228 µM

stoichiometry N [2]: 4
stoichiometry N [3]: 4
Compound: MasL (acetyl-CoA acetyltransferase of Massilia sp. YMA4), apo form (enzyme)

stoichiometry N [4]: 4
Compound: MasL-collimonin C complex (MasL covalently modified by collimonin C at Cys90) (enzyme)

stoichiometry N [5]: 4
Compound: MasL-collimonin D complex (MasL modified by collimonin D) (enzyme)

Source: article PMC9098870, “Integrated omics approach to unveil antifungal bacterial polyynes as acetyl-CoA acetyltransferase inhibitors” (Communications Biology, 2022)
